Tested on: subcutaneous xenograft tumor of human gastric cancer NCI-N87 cells
Assay: Assay Example 5: in vivo pharmacodynamics, NCI-N87 xenograft
Design: species or system BALB/c nude mouse
Settings: 0.5 mg/kg
Procedure: Purpose of the assay: to evaluate the in vivo efficacy of test compounds disclosed herein on subcutaneous xenograft tumor of human gastric cancer NCI-N87 cells in a BALB/c nude mouse model.
Animals of the assay: female BALB/c nude mice, 6-8 weeks old, weighing 18-22 grams; supplier: shanghai sippr bk laboratory animals Ltd.
Human gastric cancer NCI-N87 cells were cultured in monolayer in vitro. The culture conditions were RPMI-1640 medium plus 10% fetal bovine serum, 100 U/mL penicillin, 100 μg/mL streptomycin, 37° C., 5% CO2. The passaging was performed by conventional digestion with trypsin-EDTA twice a week. When the cell saturation was 80%-90%, the cells were collected, counted and inoculated.
0.2 mL (10×10^6) of NCI-N87 cells (PBS+Matrigel, 1:1) were inoculated subcutaneously on the right back of each mouse. When the average tumor volume reached 156 mm^3, administration to each group was started.
The test compounds were formulated into a 0.05 mg/mL clear solution in the solvents of 10% NMP (N-methylpyrrolidone)+10% ethylene glycol stearate+80% water.
The assay index is to investigate whether tumor growth is inhibited, delayed or cured. Tumor diameter was measured twice a week with a vernier caliper. The calculation formula of tumor volume is: V=0.5a×b^2, wherein a and b represent the long and short diameters of tumor, respectively.
The antitumor efficacy of the compounds were evaluated by TGI (%) or tumor proliferation rate T/C (%). TGI (%) reflects the tumor growth inhibition rate. TGI (%) is calculated as follows: TGI (%)=[1−(average tumor volume at the end of administration for a certain treatment group−average tumor volume at the beginning of administration for this treatment group)/(average tumor volume at the end of treatment for a solvent control group−average tumor volume at the beginning of administration for this solvent control group)]×100%.
Tumor proliferation rate T/C (%): the calculation formula is as follows: T/C (%)=average tumor volume at the end of administration for a certain treatment group/average tumor volume at the end of treatment for the solvent control group×100%.
Statistical analysis included the mean and standard error (SEM) of tumor volume at each time point in each group (See Table 5-1 for specific data). […] The comparison between two groups was analyzed by T-test, and the comparison among three or more groups was analyzed by one-way ANOVA. […] All data analysis was carried out with SPSS 17.0. p<0.05 was considered a significant difference.

## C=CC(=O)N1[C@@H]2CC[C@H]1C[C@H](Nc1cc3c(Nc4ccc(Cl)c(Cl)c4F)ncnc3cc1OC)C2 [Example 38]
NCI-N87 xenograft, Mean + SEM
  Tumor volume (mm^3) (Day 21): 63 ± 10 mm^3
Day 21
  T/C (%): 10.69%
  TGI (%): 119.41%

Source: patent US20210078958A1, “QUINAZOLINE DERIVATIVE AND USE THEREOF” (MEDSHINE DISCOVERY INC., priority 2017, published 2021)
